Source: patent US20240150377A1, “MODULATORS OF CYSTIC FIBROSIS TRANSMEMBRANE CONDUCTANCE REGULATOR” (VERTEX PHARMACEUTICALS INCORPORATED, priority 2020, published 2024)
pEC50: −log10 of the molar value. Like-named read-outs stand apart in the source and are kept apart here. Blank lines part the entries; values can stand above or below the compound they belong to.

Molecular target: T1, CFTR (Homo sapiens, UniProt P13569, DEL508-508)
T1 construct: endogenous in cells; host or cells: primary human bronchial epithelial cells from CF subjects (F508del/MF-HBE), differentiated at air-liquid interface
Assay: HBE assay: Ussing chamber assay of CFTR-mediated short-circuit currents
Assay type: cell-based
Settings: for pEC50: read-out: HBE EC50
How it was run: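 CFTR-mediated Isc (μA/cm²) equals the peak response to apical 20 μM forskolin minus the residual after a 20 μM each BPO/GlyH-101/CFTR inhibitor 172 cocktail, recorded in Ussing chambers at Vhold 0 mV, 37 °C, pH 7.4, with 30 μM apical amiloride. Cells were F508del/MF HBE cultures preincubated 18-24 h with corrector (concentration range or 10 μM) plus 1 μM ivacaftor in 20% human serum.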

[1] = Table 13, read-out: HBE Max Activity (%)
[2] = Table 11, read-out: HBE Max Activity (%)
[3] = Table 12, read-out: HBE Max Activity (%)
[4] = Table 12, at 10 μM, read-out: HBE Activity at 10 μM (%)
[5] = Table 13, at 10 μM, read-out: HBE Activity at 10 μM (%)
[6] = Table 10, at 10 μM, read-out: HBE activity at 10 (μM) (%)
[7] = HBE assay, read-out: HBE Max activity (%)
[8] = HBE assay, 10 μM, read-out: HBE Activity at 10 μM (%)
[9] = Table 10, read-out: HBE Max activity (%)
[10] = Table 11, at 10 μM, read-out: HBE Activity at 10 μM (%)

T1 sequence (P13569 with tags, fused parts or gaps DEL508-508): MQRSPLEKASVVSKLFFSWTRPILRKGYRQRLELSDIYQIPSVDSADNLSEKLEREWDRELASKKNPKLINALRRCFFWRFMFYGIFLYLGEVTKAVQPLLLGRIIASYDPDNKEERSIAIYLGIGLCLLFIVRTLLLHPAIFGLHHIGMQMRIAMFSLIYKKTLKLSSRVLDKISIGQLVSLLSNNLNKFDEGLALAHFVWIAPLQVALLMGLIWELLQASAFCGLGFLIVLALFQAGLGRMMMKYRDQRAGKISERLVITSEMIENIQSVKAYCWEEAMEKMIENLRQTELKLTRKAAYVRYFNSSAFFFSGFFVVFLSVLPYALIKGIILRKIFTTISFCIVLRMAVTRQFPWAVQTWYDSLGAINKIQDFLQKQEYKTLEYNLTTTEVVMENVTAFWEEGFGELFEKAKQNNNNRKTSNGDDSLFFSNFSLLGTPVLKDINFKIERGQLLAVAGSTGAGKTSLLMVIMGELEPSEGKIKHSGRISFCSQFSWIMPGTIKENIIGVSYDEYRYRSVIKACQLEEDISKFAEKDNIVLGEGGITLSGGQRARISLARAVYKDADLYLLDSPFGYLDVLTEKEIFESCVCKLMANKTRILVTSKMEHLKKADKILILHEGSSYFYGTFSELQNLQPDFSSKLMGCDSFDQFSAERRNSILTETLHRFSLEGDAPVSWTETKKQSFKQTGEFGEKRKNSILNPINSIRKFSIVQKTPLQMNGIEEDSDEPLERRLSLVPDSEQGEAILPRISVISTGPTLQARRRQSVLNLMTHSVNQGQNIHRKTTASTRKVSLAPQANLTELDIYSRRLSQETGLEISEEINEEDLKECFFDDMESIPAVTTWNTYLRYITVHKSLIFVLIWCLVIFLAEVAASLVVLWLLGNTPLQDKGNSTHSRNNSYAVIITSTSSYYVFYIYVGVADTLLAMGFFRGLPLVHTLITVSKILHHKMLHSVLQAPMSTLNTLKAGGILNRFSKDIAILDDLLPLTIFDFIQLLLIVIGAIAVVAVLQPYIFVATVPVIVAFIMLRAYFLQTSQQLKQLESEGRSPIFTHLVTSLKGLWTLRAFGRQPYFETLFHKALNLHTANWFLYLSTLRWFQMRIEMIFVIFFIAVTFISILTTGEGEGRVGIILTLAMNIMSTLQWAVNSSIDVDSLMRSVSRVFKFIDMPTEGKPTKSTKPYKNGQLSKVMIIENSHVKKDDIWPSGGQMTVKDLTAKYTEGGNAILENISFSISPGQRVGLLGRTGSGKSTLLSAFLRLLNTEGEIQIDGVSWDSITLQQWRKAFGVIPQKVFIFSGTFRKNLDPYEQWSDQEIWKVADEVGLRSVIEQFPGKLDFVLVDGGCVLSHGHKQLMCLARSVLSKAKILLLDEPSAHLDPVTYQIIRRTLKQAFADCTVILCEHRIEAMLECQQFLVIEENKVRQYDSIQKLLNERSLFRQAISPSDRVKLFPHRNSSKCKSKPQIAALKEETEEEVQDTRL

pEC50 (Table 13): 5.52 to 6.00 | Emax [1]: > 60%
SMILES: Cc1cccc(C)c1-c1cc2nc(n1)NS(=O)(=O)c1cccc(c1)C(=O)N(Cc1ncc([C@@H](O)CO)cn1)[C@H](CC(C)(C)C)CO2 [Compound 1153]

pEC50 (Table 11): > 6.00 | Emax [2]: > 60%
SMILES: Cc1cccc(C)c1-c1cc2nc(n1)NS(=O)(=O)c1cccc(c1)C(=O)N(Cc1cccc(NC(C)(C)C)n1)[C@H](CC(C)(C)C)CO2 [Compound 739]

pEC50 (Table 12): > 6.00 | Emax [3]: > 60%
SMILES: Cc1cccc(C)c1-c1cc2nc(n1)NS(=O)(=O)c1cccc(c1)C(=O)N(Cc1cn3ccccc3n1)[C@H](CC(C)(C)C)CO2 [Compound 699]

activation at 10 µM [4]: > 600% | pEC50 (Table 12): > 6.00 | Emax [3]: > 60%
SMILES: Cc1cccc(C)c1-c1cc2nc(n1)NS(=O)(=O)c1cccc(c1)C(=O)N(Cc1ncc(OC3CCCCC3)cn1)[C@H](CC(C)(C)C)CO2 [Compound 561]

pEC50 (Table 11): > 6.00 | Emax [2]: > 60%
SMILES: Cc1cccc(C)c1-c1cc2nc(n1)NS(=O)(=O)c1cccc(c1)C(=O)N(Cc1ncc(CC(C)C)cn1)[C@H](CC(C)(C)C)CO2 [Compound 120, (11R)-6-(2,6-Dimethylphenyl)-11-(2,2-dimethylpropyl)-12-[(5-isobutylpyrimidin-2-yl)methyl]-2,2-dioxo-9-oxa-2λ^6-thia-3,5,12,19-tetrazatricyclo[12.3.1.14,8]nonadeca-1(18),4(19),5,7,14,16-hexaen-13-one]

activation at 10 µM [5]: > 600%
SMILES: Cc1cccc(C)c1-c1cc2nc(n1)NS(=O)(=O)c1cccc(c1)C(=O)N(CC(=O)NC1CCCC1)[C@H](CC(C)(C)C)CO2 [Compound 198]

activation at 10 µM [6]: > 60%
SMILES: Cc1cccc(C)c1-c1cc2nc(n1)NS(=O)(=O)c1cccc(c1)C(=O)N(Cc1cn(C)nc1C)[C@H](CC(C)(C)C)CO2 [Compound 822]

activation at 10 µM [5]: > 600%
SMILES: Cc1cccc(C)c1-c1cc2nc(n1)NS(=O)(=O)c1cccc(c1)C(=O)N(CC(=O)N1CCC(C)(C)CC1)[C@H](CC(C)(C)C)CO2 [Compound 208]

pEC50 (HBE assay): > 6.00 | Emax [7]: > 60%
SMILES: Cc1cccc(C)c1-c1cc2nc(n1)NS(=O)(=O)c1cccc(c1)C(=O)N(Cc1nc(OCC(C)C)ccc1F)[C@H](CC(C)(C)C)CO2 [Compound 1376]

pEC50 (Table 13): > 6.00 | Emax [1]: > 60%
SMILES: Cc1cc(OC(C)C)cnc1CN1C(=O)c2cccc(c2)S(=O)(=O)Nc2nc(cc(-c3c(C)cccc3C)n2)OC[C@H]1CC(C)(C)C [Compound 1116]

activation at 10 µM [8]: > 60%
SMILES: Cc1cccc(C)c1-c1cc2nc(n1)NS(=O)(=O)c1cccc(c1)C(=O)N(Cc1cncc(N3CC[C@@H]4COC[C@@H]43)n1)[C@H](CC(C)(C)C)CO2 [Compound 1540]

activation at 10 µM [5]: > 600%
SMILES: Cc1cccc(C)c1-c1cc2nc(n1)NS(=O)(=O)c1cccc(c1)C(=O)N(CC1CC3(C1)CC(N(C)C)C3)[C@H](CC(C)(C)C)CO2 (stereo partly drawn) [Compound 1000]

pEC50 (Table 13): > 6.00 | Emax [1]: > 60%
SMILES: Cc1cccc(C)c1-c1cc2nc(n1)NS(=O)(=O)c1cccc(c1)C(=O)N(Cc1ncccc1F)[C@H](CC(C)(C)C)CO2 [Compound 1068]

activation at 10 µM [6]: > 60%
SMILES: Cc1cccc(C)c1-c1cc2nc(n1)NS(=O)(=O)c1cccc(c1)C(=O)N(Cc1ccccc1-c1c[nH]nc1C)[C@H](CC(C)(C)C)CO2 [Compound 307]

pEC50 (Table 10): > 6.00 | Emax [9]: > 60%
SMILES: Cc1cccc(C)c1-c1cc2nc(n1)NS(=O)(=O)c1cccc(c1)C(=O)N(Cc1ccc(-c3cnc(N)nc3)cc1)[C@H](CC(C)(C)C)CO2 [Compound 782]

pEC50 (Table 12): > 6.00 | Emax [3]: > 60%
SMILES: COc1cccc(C)c1-c1cc2nc(n1)NS(=O)(=O)c1cccc(c1)C(=O)N(Cc1ncc(N3CCC(C)(C)C3)cn1)[C@H](CC(C)(C)C)CO2 [Compound 579]

pEC50 (Table 13): 5.52 to 6.00 | Emax [1]: > 60%
SMILES: Cc1cccc(C)c1-c1cc2nc(n1)NS(=O)(=O)c1cccc(c1)C(=O)N(Cc1nccc(N(C)CC(C)(C)C)c1F)[C@H](CC(C)(C)C)CO2 [Compound 1155]

pEC50 (Table 13): 5.52 to 6.00 | Emax [1]: > 60%
SMILES: Cc1cccc(C)c1-c1cc2nc(n1)NS(=O)(=O)c1cccc(c1)C(=O)N(Cc1ccc(C3CC4(CCC4)C3)cn1)[C@H](CC(C)(C)C)CO2 [Compound 163]

pEC50 (HBE assay): > 6.00 | Emax [7]: > 60%
SMILES: Cc1cccc(C)c1-c1cc2nc(n1)NS(=O)(=O)c1cccc(c1)C(=O)N(Cc1ncc(OC3CCCC3)cn1)[C@H](CC1CC1)CO2 [Compound 1463]

activation at 10 µM [6]: > 60%
SMILES: Cc1cccc(C)c1-c1cc2nc(n1)NS(=O)(=O)c1cccc(c1)C(=O)N(C[C@H]1CC[C@@H](O)CC1)[C@H](CC(C)(C)C)CO2 (single isomer, unassigned) [Compound 152]

pEC50 (HBE assay): > 6.00 | Emax [7]: > 60%
SMILES: Cc1cccc(C)c1-c1cc2nc(n1)NS(=O)(=O)c1cccc(c1)C(=O)N(Cc1ccnc(N3CCC[C@H]3C)n1)[C@H](CC(C)(C)C)CO2 [Compound 1449]

activation at 10 µM [5]: > 600%
SMILES: Cc1cccc(C)c1-c1cc2nc(n1)NS(=O)(=O)c1cccc(c1)C(=O)N(Cc1cccc(N3CCC[C@@H]3C#N)n1)[C@H](CC(C)(C)C)CO2 [Compound 533]

activation at 10 µM [10]: > 60%
SMILES: Cc1cccc(C)c1-c1cc2nc(n1)NS(=O)(=O)c1cccc(c1)C(=O)N(CC1CCOC1)[C@H](CC(C)(C)C)CO2 (stereo partly drawn) [Compound 901]

activation at 10 µM [5]: > 600%
SMILES: Cc1cccc(C)c1-c1cc2nc(n1)NS(=O)(=O)c1cccc(c1)C(=O)N(Cc1cc(N(C)CC(C)(C)C)ccn1)[C@H](CC(C)(C)C)CO2 [Compound 994]

pEC50 (HBE assay): > 6.00 | Emax [7]: > 60%
SMILES: COCCN(c1cncc(CN2C(=O)c3cccc(c3)S(=O)(=O)Nc3nc(cc(-c4c(C)cccc4C)n3)OC[C@H]2CC(C)(C)C)n1)C1CCCC1 [Compound 1437]

activation at 10 µM [5]: > 600%
SMILES: Cc1cccc(C)c1-c1cc2nc(n1)NS(=O)(=O)c1cccc(c1)C(=O)N(CC(=O)N1CCCC1(C)C)[C@H](CC(C)(C)C)CO2 [Compound 213]

activation at 10 µM [6]: > 60%
SMILES: Cc1cccc(C)c1-c1cc2nc(n1)NS(=O)(=O)c1cccc(c1)C(=O)N(Cc1ccc(C3CCCCC3)c(C)n1)[C@H](CC(C)(C)C)CO2 [Compound 467]

pEC50 (Table 12): > 6.00 | Emax [3]: > 60%
SMILES: Cc1cccc(C)c1-c1cc2nc(n1)NS(=O)(=O)c1cccc(c1)C(=O)N(Cc1cnc(N3CCC(C)(C)C3)nc1)[C@H](CC(C)(C)C)CO2 [Compound 272]

pEC50 (Table 11): > 6.00 | Emax [2]: > 60%
SMILES: Cc1cccc(C)c1-c1cc2nc(n1)NS(=O)(=O)c1cccc(c1)C(=O)N(Cc1nccc(NC3CCCCC3)n1)[C@H](CC(C)(C)C)CO2 [Compound 614]

activation at 10 µM [10]: > 60% | pEC50 (Table 11): > 6.00 | Emax [2]: > 60%
SMILES: Cc1cccc(C)c1-c1cc2nc(n1)NS(=O)(=O)c1cccc(c1)C(=O)N(CC1CCN(CCC(C)(C)C)C1=O)[C@H](CC(C)(C)C)CO2 (stereo partly drawn) [Compound 652]

activation at 10 µM [5]: > 600%
SMILES: Cc1cccc(C)c1-c1cc2nc(n1)NS(=O)(=O)c1cccc(c1)C(=O)N(CC(=O)N1CCCCC1c1ccc(F)cc1)[C@H](CC(C)(C)C)CO2 (stereo partly drawn) [Compound 177]

pEC50 (Table 11): > 6.00 | Emax [2]: 30 to 60%
SMILES: Cc1cccc(C)c1-c1cc2nc(n1)NS(=O)(=O)c1cccc(c1)C(=O)N(Cc1cccc(N3[C@H](C)CC[C@@H]3C)n1)[C@H](CC(C)(C)C)CO2 [Compound 709]

activation at 10 µM [8]: > 60%
SMILES: Cc1cccc(C)c1-c1cc2nc(n1)NS(=O)(=O)c1cccc(c1)C(=O)N(Cc1cncc(N3CC[C@@H]4CCC[C@@H]43)n1)[C@H](CC(C)(C)C)CO2 [Compound 1542]

activation at 10 µM [5]: > 600%
SMILES: Cc1cccc(C)c1-c1cc2nc(n1)NS(=O)(=O)c1cccc(c1)C(=O)N(CC(=O)N(C)CC1CCCOC1)[C@H](CC(C)(C)C)CO2 (stereo partly drawn) [Compound 193]

activation at 10 µM [10]: > 60%
SMILES: Cc1cccc(C)c1-c1cc2nc(n1)NS(=O)(=O)c1cccc(c1)C(=O)N(Cc1cccc(C3=CCC(C)(C)CC3)n1)[C@H](CC(C)(C)C)CO2 [Compound 734]

activation at 10 µM [4]: > 600%
SMILES: Cc1cccc(C)c1-c1cc2nc(n1)NS(=O)(=O)c1cccc(c1)C(=O)N(Cc1ncc(C(C)C)n1C)[C@H](CC(C)(C)C)CO2 [Compound 266]

pEC50 (HBE assay): > 6.00 | Emax [7]: > 60%
SMILES: COCCN(c1cncc(CN2C(=O)c3cccc(c3)S(=O)(=O)Nc3nc(cc(-c4c(C)cccc4C)n3)OC[C@H]2CC(C)(C)C)n1)C1CC2(CC2)C1 [Compound 1394]

pEC50 (Table 13): > 6.00 | Emax [1]: > 60%
SMILES: Cc1cccc(C)c1-c1cc2nc(n1)NS(=O)(=O)c1cccc(n1)C(=O)N(Cc1cncc(N(C)CC(C)(C)C)n1)[C@H](CC(C)(C)C)CO2 [Compound 1126]

pEC50 (Table 12): > 6.00 | Emax [3]: > 60%
SMILES: COC[C@H]1CCCN1c1cnc(CN2C(=O)c3cccc(c3)S(=O)(=O)Nc3nc(cc(-c4c(C)cccc4C)n3)OC[C@H]2CC(C)(C)C)nc1 [Compound 570]

pEC50 (Table 11): > 6.00 | Emax [2]: > 60%
SMILES: Cc1cccc(C)c1-c1cc2nc(n1)NS(=O)(=O)c1cccc(c1)C(=O)N(Cc1cccc(N3CCC(C)(C)CC3)n1)[C@H](CC(C)(C)C)CO2 [Compound 474]

pEC50 (Table 10): 5.52 to 6.00 | Emax [9]: > 60%
SMILES: Cc1cccc(C)c1-c1cc2nc(n1)NS(=O)(=O)c1cccc(c1)C(=O)N(Cc1ccc(-c3cnc(O)nc3)cc1)[C@H](CC(C)(C)C)CO2 [Compound 145, (11R)-6-(2,6-dimethylphenyl)-11-(2,2-dimethylpropyl)-12-[[4-(2-hydroxypyrimidin-5-yl)phenyl]methyl]-2,2-dioxo-9-oxa-2λ^6-thia-3,5,12,19-tetrazatricyclo[12.3.1.14,8]nonadeca-1(18),4(19),5,7,14,16-hexaen-13-one]

pEC50 (Table 11): > 6.00 | Emax [2]: > 60%
SMILES: Cc1cccc(C)c1-c1cc2nc(n1)NS(=O)(=O)c1cccc(c1)C(=O)N(Cc1ncc(N3CCC(C)(C)C3)cn1)[C@H](CC(C)C)CO2 [Compound 606]
